Test results from patent US20160038565A1, “Methods of Mitigating Side Effects of Radiation Exposure and Chemotherapy” (Gencia Corporation, priority 2012, published 2016).

What was measured:
[1] = Doxorubicin toxicity in naive mice (body weight, food intake, survival); assay type: in vivo, C57/BL6 mice; details: doxorubicin 25 mg/kg
Description: Two of four groups of five naive C57/BL6 mice were treated with doxorubicin (dox) at dose of 25 mg/kg, whereas the other two groups were left untreated. To assess PTD−TFAM's ability to ameliorate the toxic effects of Doxorubicin one group each of the dox-treated and untreated animals received PTD−TFAM at a dose of 0.3mg/kg on the same day as they were treated with Doxorubicin and every four days for two weeks thereafter (indicated with arrows in FIG. 1). Concurrently mice in the last two groups (one treated and one untreated with Doxorubicin) received vehicle alone (100 μl of 50% sorbitol, 2×PBS). To assess toxicity of the Doxorubicin treatment, mice were weighed once daily.
Each treatment group was housed together in cage separate from the other treatment group(s). The animals in each case share a food hopper. Food intake was evaluated on a group-by-group basis by weighing each group's food once daily. The difference in food weight between two days provides a rough estimate of the group's food intake during the period between two measurements (i.e, a day).

[2] = tested on: orthotopic MiaPaca-2 xenografts; assay: Gemcitabine toxicity in orthotopic model of pancreatic cancer; assay type: in vivo, BALB/c nude mouse; details: gemcitabine 40 mg/kg every 3 days
Description: MiaPaCa-2 tumor cells was maintained in vitro as monolayer culture in DMEM medium supplemented with 10% fetal bovine serum, 2.5% horse serum, 100 U/ml penicillin and 100 μg/m1 streptomycin, and 2 mM L-glutamine at 37° C. in an atmosphere of 5% CO2 in air. The tumor cells were routinely subcultured twice weekly by trypsin-EDTA treatment. Cells in an exponential growth phase will be harvested and counted for tumor inoculation. Before orthotopic implantation, 5×10^6 MiaPaca-2 cells in 50 μl PBS mixed with 50 μl Matrigel were inoculated subcutaneously at the right flank of each BALB/c nude mouse. Upon subcutaneous tumor size reaching about 500 mm^3, tumors were collected for orthotopic implantation.
For orthotopic MiaPaca-2 xenografts, mice were anesthetized by intraperitoneal injection of pentobarbital sodium (50 mg/kg) before tumor inoculation. The abdominal skin was sterilized and laparotomy was performed to expose the pancreas. Each mouse was inoculated with a subcutaneous MiaPaca-2 tumor fragment (2-3 mm in diameter) in the subcapsular region of the pancreas for tumor development. The abdominal wall was closed using No. 6 suture and then sterilized with povidone iodine solution. The day of surgery was denoted as Day 0 (DO). […] The body weight of each mouse was measured on treatment days 1, 5, 8, 12, 15, 19 and 22. […]

Row | Structure (SMILES) | deaths / survival ([1]; PTD-TFAM 0.3 mg/kg every four days, five mice per group) | food consumed by the group combined during days 6-8 ([1]; per cage of five mice) | mice dead by day 22 [2]
1 | COc1cccc2c1C(=O)c1c(O)c3c(c(O)c1C2=O)C[C@@](O)(C(=O)CO)C[C@@H]3O[C@H]1C[C@H](N)[C@H](O)[C@H](C)O1 [dox, doxorubicin] | One of the mice in dox only treatment group began to gain weight, but died on day 14 | less than two grams | –
2 | Nc1ccn([C@@H]2O[C@H](CO)[C@@H](O)C2(F)F)c(=O)n1 [gemcitabine] | – | – | 50%
